Measured values reported in PMC11271582.
pEC50: −log10 of the molar value. Values joined by “and” are separate entries in the source; they are usually repeats but may differ in a detail not shown here. Identical values can stand only once.

Key:
[1] = tested on: protein synthesis (RNA translation) in Huh7/Lunet-T7 cells; test: ribopuromycylation assay; format: cell-based, human; conditions: 200 µg/ml
Description: A protocol for the ribopuromycylation method to detect nascent protein synthesis[52] was integrated into the workflow for the determination of VPs formation. In brief, cycloheximide (CHX, 200 µg/ml) was added to cells 30 min before the start of a four-hour treatment with 35 nM JNJ-A07 (or vehicle control) to block de novo protein synthesis. Thereafter, the medium was replaced with DMEMComplete prewarmed to 37 °C, to which puromycin was added at a final concentration of 10 µg/ml. Cells were incubated at 37 °C for 5 minutes and then either fixed for microscopy or lysed for western blot analysis.

[2] = tested on: T1, WT (transient replicon assay, sgDVs-R2A, DENV 2/16681); test: microbe, parasite or virus in culture; design: species or system Huh7-derived cells (sheet title cut off after 'Hu'); transient DENV-2 replicon assay, inhibition of wild-type replicon replication; conditions: wild-type replicon, replicate
T1 construct: 16681 wild-type subgenomic reporter replicon sgDVs-R2A

DENV NS4B and NS3 = DENV NS4B and NS3 (Dengue virus type 2, UniProt P29990); test: imaging-based colocalization of click-labeled PAL compounds with DENV proteins (pIRO-D); conditions: 1 µM; pIRO-D WT, Huh7/Lunet-T7 cells
Chain of DENV NS4B and NS3 (P29990 2244-2491): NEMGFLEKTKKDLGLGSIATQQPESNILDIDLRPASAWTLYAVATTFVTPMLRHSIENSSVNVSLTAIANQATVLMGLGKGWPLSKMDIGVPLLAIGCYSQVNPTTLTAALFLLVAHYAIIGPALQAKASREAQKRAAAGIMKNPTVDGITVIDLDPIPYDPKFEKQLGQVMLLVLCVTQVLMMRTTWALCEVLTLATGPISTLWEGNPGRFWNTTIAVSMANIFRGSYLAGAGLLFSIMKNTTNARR

ZIKV NS4B = ZIKV NS4B (Zika virus, UniProt A0A024B7W1); test: imaging-based colocalization of click-labeled PAL compound with ZIKV NS4B (pIRO-Z); conditions: 1 µM, Huh7/Lunet-T7 cells
Chain of ZIKV NS4B (A0A024B7W1 2270-2520): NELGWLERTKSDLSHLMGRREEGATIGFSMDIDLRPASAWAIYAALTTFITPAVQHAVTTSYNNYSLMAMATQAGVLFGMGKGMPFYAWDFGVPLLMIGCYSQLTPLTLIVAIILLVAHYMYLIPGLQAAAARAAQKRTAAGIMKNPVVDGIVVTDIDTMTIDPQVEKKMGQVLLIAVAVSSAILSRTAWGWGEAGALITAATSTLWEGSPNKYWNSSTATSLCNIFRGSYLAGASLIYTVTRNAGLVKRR

Calnexin-HA = target: T2, Calnexin-HA (Homo sapiens, UniProt P27824); test: photoaffinity labeling and click labeling on agarose beads (specificity control); format: binding; conditions: 1 µM, UV 365 nm
T2 construct: expressed in transfected cells
T2 sequence (P27824 21-592): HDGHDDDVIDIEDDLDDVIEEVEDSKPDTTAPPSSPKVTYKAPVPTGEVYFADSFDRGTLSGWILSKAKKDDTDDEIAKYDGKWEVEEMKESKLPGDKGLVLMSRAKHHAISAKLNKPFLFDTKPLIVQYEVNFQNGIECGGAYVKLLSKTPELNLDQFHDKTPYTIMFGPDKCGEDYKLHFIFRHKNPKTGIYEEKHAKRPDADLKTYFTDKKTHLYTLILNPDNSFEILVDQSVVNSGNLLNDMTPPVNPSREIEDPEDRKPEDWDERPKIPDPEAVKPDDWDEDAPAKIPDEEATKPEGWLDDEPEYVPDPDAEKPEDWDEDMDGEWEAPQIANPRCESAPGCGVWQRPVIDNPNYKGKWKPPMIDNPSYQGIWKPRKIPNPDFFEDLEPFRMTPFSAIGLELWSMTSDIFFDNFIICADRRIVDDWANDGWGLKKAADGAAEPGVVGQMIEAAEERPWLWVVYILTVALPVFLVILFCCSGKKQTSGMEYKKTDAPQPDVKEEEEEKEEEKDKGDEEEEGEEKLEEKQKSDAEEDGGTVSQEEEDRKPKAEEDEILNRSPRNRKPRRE

cells = tested on: cells; design: method as in Kaptein et al, Nature, 2021; conditions: at used concentrations; ref Kaptein et al, Nature, 2021; cited from earlier work
ZIKV = tested on: ZIKV; design: method as in PMID 34671169; conditions: cited from earlier work
[3] = tested on: DENV vesicle packets (VPs) formation; test: determination of VPs formation (pIRO-D system, TEM) in Huh7/Lunet-T7 cells
DENV-2/16681 = tested on: DENV-2/16681; design: method as in PMID 34671169; conditions: pan-serotype; cited from earlier work
DENV NS1-5 polyprotein = DENV NS1-5 polyprotein (Dengue virus type 2, UniProt P29990); test: polyprotein processing by western blot (pIRO-D system); conditions: 35 nM, regardless of the time of addition
Chain of DENV NS1-5 polyprotein (P29990 2244-2491): as the sequence (P29990 2244-2491) above

YFV = conditions: cited from earlier work
DENV-1 or DENV-2 = conditions: non-human primates; cited from earlier work

## C[C@@H]1C[C@@H]([C@H](O)CC2CC(=O)NC(=O)C2)C(=O)[C@@H](C)C1 [CHX, cycloheximide]
[1]
  RNA translation (puromycin incorporation): completely arrested RNA translation

## C#CCCC1(CCn2cc(C(=O)C(Nc3cc(OC)cc(OCCOC)c3)c3ccc(Cl)cc3OC)c3cc(OC(F)(F)F)ccc32)N=N1 (stereo not shown) [Compound A]
[2]; Dengue virus, Experimental series=1
  pEC50: 7.19
[2]; Dengue virus, Experimental series=2
  pEC50: 7.21
[2]; Dengue virus, Experimental series=3
  pEC50: 7.28
[2]; Experimental series=1, inhibitor
  pEC50: 7.24 and 7.28
[2]; Experimental series=2, inhibitor
  pEC50: 7.32 and 7.31
[2]; Experimental series=3, inhibitor
  pEC50: 7.17 and 7.19
DENV NS4B and NS3
  colocalization of labeled PAL compound with NS4B (and NS3), Pearson correlation: high degree of colocalization
ZIKV NS4B
  colocalization of labeled compound with ZIKV NS4B: low-level, albeit significant colocalization
Calnexin-HA
  Cy5.5 labeling of HA-tagged Calnexin: No labeling

## C#CCCC1(CCn2cc(C(=O)C(Nc3cc(OC)cc(OCCOC)c3)c3ccc(Cl)cc3OC)c3cc(OC(F)(F)F)ccc32)N=N1 (stereo not shown) [Compound B]
DENV NS4B and NS3
  colocalization of labeled PAL compound with NS4B (and NS3), Pearson correlation: significantly lower colocalization

## COc1cc(NC(C(=O)N2CCc3ccc(OC(F)(F)F)cc32)c2ccc(Cl)cc2)cc(OCCCC(=O)O)c1 (stereo not shown) [JNJ-A07]
cells
  cytotoxicity: not cytotoxic
ZIKV
  antiviral activity against ZIKV: marginal antiviral activity
[3]; 35 nM
  VPE diameter: no effect on VPE diameter
[3]; 35 nM added early, 4 h after transfection
  VPs in time-of-addition experiment: almost complete loss of VPs
[3]; 35 nM added late, 16 h after transfection
  VPE formation efficiency in time-of-addition experiment: reduced to a much lower degree
[3]; 35 nM with CHX 200 µg/ml, compared to CHX only
  VPE decay with protein synthesis blocked: does not accelerate VPE decay
[3]; 35 nM, NS4B resistance mutants
  VPE efficiency: not affected
DENV-2/16681
  activity against DENV: nano- to picomolar
DENV NS1-5 polyprotein
  effect on polyprotein processing: no apparent effect on polyprotein processing
YFV
  antiviral activity against YFV lower compared to an average value for a DENV isolate: about 1000 times

## COc1cc(N[C@H](C(=O)c2c[nH]c3ccc(OC(F)(F)F)cc23)c2ccc(Cl)cc2OC)cc(S(C)(=O)=O)c1 [Mosnodenvir]
DENV-1 or DENV-2
  efficacy against infection with either DENV-1 or DENV-2: highly effective
